{"source": "patent US20030191144A1", "about": "“Compounds, compositions and methods for modulating beta-amyloid production” (Active Pass Pharmaceuticals, Inc., priority 2001, published 2003)", "type_in_all_cases": "cell-based", "key": {"[1]": {"tested_on": "Aβ40 production and/or release from SM-4 cells", "assay": "Aβ40 ELISA of culture media from SM-4 cells", "settings": "10-500 μM, 16 hrs", "protocol": "Cell Lines and Pharmacological Treatments. 293 EBNA cells (InVitrogen, Carlsbad, Calif.) stably transfected with Swedish mutant β-Amyloid Precursor Protein -695 (SM4 cells) were routinely maintained in DMEM supplemented with sodium pyruvate (1 mM) and 10% fetal bovine serum. Cells were seeded into poly-D-Lysine (SIGMA) coated 6-well plates at a density of 5-7×10^5 cells per well. Subsequently, the cells were rinsed in 1 ml of PBS and treated with 10-500 μM of pirinixic acid in serum-free/phenol red-free DMEM for 16 hours. Aβ Detection and Standardization. After the pharmacological treatment, the exposure media was collected and supplemented with 10% sample treatment buffer (40 mM sodium phosphate (pH 7.4), 40 mM triethanolamine, 0.1% Triton X-100, 200 mM NaCl, 2 mM EGTA, 0.1% Sodium azide), and assayed for either Aβ40 or Aβ42 by a calorimetric ELISA as per the manufacturer's protocol (Biosource International Inc, California). The cells were lysed in 0.1% Triton X-100 in PBS supplemented with 5 μM propridium iodide (Molecular Probes, Eugene, Oreg.) and incubated at 37° C. for 30 minutes prior to measuring fluorescence. Aβ40 and Aβ42 were standardized against propridium iodide fluorescence as a measure of total cell number. 293 EBNA cells (InVitrogen, Carlsbad, Calif.) stably transfected with Swedish mutant β-Amyloid Precursor Protein -695 (SM4 cells) were routinely maintained in DMEM supplemented with sodium pyruvate (1 mM) and 10% fetal bovine serum. […] The cells were lysed in 0.1% Triton X-100 in PBS supplemented with 5 μM propridium iodide (Molecular Probes, Eugene, Oreg.) and incubated at 37° C. for 30 minutes prior to measuring fluorescence. Aβ40 and Aβ42 were standardized against propridium iodide fluorescence as a measure of total cell number. […] The cells were lysed in 0.1% Triton X-100 in PBS supplemented with 5 μM propridium iodide (Molecular Probes, Eugene, Oreg.) and incubated at 37° C. for 30 minutes prior to measuring fluorescence. Aβ40 and Aβ42 were standardized against propridium iodide fluorescence as a measure of total cell number."}, "[2]": {"tested_on": "Aβ42 from human neuroblastoma cells (hDAT; SK-N-MC)", "assay": "Aβ42 ELISA, human neuroblastoma cells transiently transfected with APPsw", "settings": "200 μM, 24 hours, p<0.001, n=11", "protocol": "(§1) Human neuroblastoma cells (hDAT; SK-N-MC stably overexpression human dopamine transporter) were routinely maintained in DMEM supplemented with sodium pyruvate (1 mM) and 10% fetal bovine serum. […] Subsequently, 48 hours post-transfection the cells were rinsed with PBS and treated with vehicle (0.1% DMSO) or 100-200 μM pirinixic acid in serum free/phenol free DMEM for 24 hours. After the pharmacological treatment, the exposure media was collected and supplemented with 10% sample treatment buffer (40 mM sodium phosphate (pH 7.4), 40 mM triethanolamine, 0.1% Triton X-100, 200 mM NaCl, 2 mM EGTA, 0.1% Sodium azide), and assayed for either Aβ40 or AP42 by a calorimetric ELISA as per the manufacturer's protocol (Biosource International Inc, California). The cells were lysed in 0.1% Triton X-100 in PBS supplemented with 5 μM Propridium Iodide (Molecular probes, Eugene, Oreg.) and incubated at 37° C. for 30 minutes prior to measuring fluorescence. Secreted Aβ40 and Aβ42 levels were standardized against propridium iodide fluorescence as a measure of total cell number. Data are expressed as a percent of control and represent the mean±SD with n=11 and statistical significance determined by ANOVA with a Tukey's post hoc test at ***p<0.001."}, "[3]": {"tested_on": "Aβ40 from human neuroblastoma cells (hDAT; SK-N-MC)", "assay": "Aβ40 ELISA, human neuroblastoma cells transiently transfected with APPsw", "settings": "200 μM, 24 hours", "protocol": "as §1"}}, "data": [{"smiles": "Cc1cccc(Nc2cc(Cl)nc(SCC(=O)O)n2)c1C", "note": "[pirinixic acid]", "values": [{"measurement": "change in Aβ40 production and/or release", "setting": "[1]", "value": "no significant change"}, {"measurement": "decrease in Aβ42", "setting": "[2]", "value": 40, "unit": "%"}, {"measurement": "effect on Aβ40", "setting": "[3]", "value": "without altering Aβ40"}]}]}
